Biological target: T1, GST-tagged-Wee1 kinase (Homo sapiens, UniProt P30291)
T1 construct: purchased Carnabio 05-177
Assay: Wee1 time-resolved fluorescence equilibrium binding assay (displacement of Oregon Green-labeled ATP-competitive probe)
Settings: TR-FRET probe displacement; 2 nM GST-Wee1, 300 nM probe, 1 hour incubation; read-out: Wee-1 binding (Ki nM)
Procedure: Wee1 kinase was assayed using a time-resolved fluorescence equilibrium binding assay monitoring displacement of a rapidly reversible Oregon Green-labeled ATP-competitive kinase probe (N-(2-(2-(2-(4-(4-(5-chloro-4-(2-(1-hydroxycyclobutyl)thiazol-5-yl)-1H-pyrrolo[2,3-b]pyridin-2-yl)phenyl)piperazin-1-yl)ethoxy)ethoxy)ethyl)-2′,7′-difluoro-3′,6′-dihydroxy-3-oxo-3H-spiro[isobenzofuran-1,9′-xanthene]-5-carboxamide) by competitive Wee1 inhibitors.

T1 sequence (P30291 whole entry): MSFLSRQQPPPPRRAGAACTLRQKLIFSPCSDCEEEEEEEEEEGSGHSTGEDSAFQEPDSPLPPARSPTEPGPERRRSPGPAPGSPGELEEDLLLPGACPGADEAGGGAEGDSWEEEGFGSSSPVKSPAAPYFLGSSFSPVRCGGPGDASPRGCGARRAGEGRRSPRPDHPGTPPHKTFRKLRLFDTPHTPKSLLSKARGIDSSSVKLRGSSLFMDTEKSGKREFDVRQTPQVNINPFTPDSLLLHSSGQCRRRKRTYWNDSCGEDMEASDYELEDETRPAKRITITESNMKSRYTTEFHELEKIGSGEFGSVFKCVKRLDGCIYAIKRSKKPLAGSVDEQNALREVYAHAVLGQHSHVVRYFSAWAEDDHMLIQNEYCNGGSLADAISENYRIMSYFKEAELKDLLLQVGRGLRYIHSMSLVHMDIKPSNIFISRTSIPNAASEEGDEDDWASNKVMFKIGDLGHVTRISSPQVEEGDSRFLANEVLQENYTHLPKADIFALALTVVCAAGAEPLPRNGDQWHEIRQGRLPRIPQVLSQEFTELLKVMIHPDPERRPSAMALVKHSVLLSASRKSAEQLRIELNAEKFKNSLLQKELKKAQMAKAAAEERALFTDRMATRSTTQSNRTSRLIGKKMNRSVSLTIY

For CCCN1c2cc(-c3cnc(N)nc3)ccc2-c2nc(Nc3ccc(N4CCN(C)CC4)cc3)ncc2S1(=O)=O [Example 73, 8-(2-aminopyrimidin-5-yl)-N-[4-(4-methylpiperazin-1-yl)phenyl]-6-propyl-6H-pyrimido[5,4-c][2,1]benzothiazin-2-amine 5,5-dioxide], which Ki is on record?
Its Ki is 3 nM.

For C=CCN1c2ccccc2-c2nc(Nc3ccc(-c4ccncc4)cc3)ncc2S1(=O)=O [Example 7, 6-allyl-N-[4-(pyridin-4-yl)phenyl]-6H-pyrimido[5,4-c][2,1]benzothiazin-2-amine 5,5-dioxide], which Ki is on record?
Its Ki is 1230 nM.

How did the Ki turn out when C=CCN1c2ccccc2-c2nc(Nc3ccc4c(c3)CNCC4)ncc2S1(=O)=O [Example 26, 6-allyl-N-(1,2,3,4-tetrahydroisoquinolin-7-yl)-6H-pyrimdio[5,4-c][2,1]benzothiazin-2-amine 5,5-dioxide] was run?
Its Ki is 1 nM.

How did the Ki turn out when COC(=O)c1ccc2c(c1)N(c1cccc(C)c1)S(=O)(=O)c1cnc(Nc3ccc(N4CCN(C)CC4)cc3)nc1-2 [Example 89, methyl 6-(3-methylphenyl)-2-{[4-(4-methylpiperazin-1-yl)phenyl]amino}-6H-pyrimido[5,4-c][2,1]benzothiazine-8-carboxylate 5,5-dioxide] was run?
The Ki was 63 nM.

For COC(=O)c1ccc2c(c1)NS(=O)(=O)c1cnc(Nc3ccc(N4CCN(C)CC4)cc3)nc1-2 [Example 65, methyl 2-{[4-(4-methylpiperazin-1-yl)phenyl]amino}-6H-pyrimido[5,4-c][2,1]benzothiazine-8-carboxylate 5,5-dioxide], which Ki is on record?
The Ki was 256 nM.

For CCCN1c2ccc(-c3cccc(C(=O)NC)c3)cc2-c2nc(Nc3ccc(N4CCN(C)CC4)cc3)ncc2S1(=O)=O [Example 100, N-methyl-3-(2-{[4-(4-methylpiperazin-1-yl)phenyl]amino}-5,5-dioxido-6-propyl-6H-pyrimido[5,4-c][2,1]benzothiazin-9-yl)benzamide], which Ki is on record?
The Ki was 4 nM.

C=CCN1c2c(C(=O)NCCO)cccc2-c2nc(Nc3ccc(N4CCN(C)CC4)cc3)ncc2S1(=O)=O [Example 62, 6-allyl-N-(2-hydroxyethyl)-2-{[4-(4-methylpiperazin-1-yl)phenyl]amino}-6H-pyrimido[5,4-c][2,1]benzothiazine-7-carboxamide 5,5-dioxide] was tested. Which Ki did it give?
The Ki was 37 nM.

How did the Ki turn out when CCCN1c2cc(C(=O)NCCO)ccc2-c2nc(Nc3ccc(N4CCN(C)CC4)cc3)ncc2S1(=O)=O [Example 84, N-(2-hydroxyethyl)-2-{[4-(4-methylpiperazin-1-yl)phenyl]amino}-6-propyl-6H-pyrimido[5,4-c][2,1]benzothiazine-8-carboxamide 5,5-dioxide] was run?
Its Ki is 8 nM.

C=CCN1c2ncccc2-c2nc(Nc3ccc4c(c3)CNCC43CC3)ncc2S1(=O)=O [Example 54, 6-allyl-N-(2′,3′-dihydro-1′H-spiro[cyclopropane-1,4′-isoquinolin]-7′-yl)-6H-pyrido[2,3-c]pyrimido[4,5-e][1,2]thiazin-2-amine 5,5-dioxide] was tested. Which Ki did it give?
The Ki was 1.2 nM.

For CCCN1c2cc(C(=O)NC)ccc2-c2nc(Nc3ccc(N4CCN(C)CC4)cc3)ncc2S1(=O)=O [Example 82, N-methyl-2-{[4-(4-methylpiperazin-1-yl)phenyl]amino}-6-propyl-6H-pyrimido[5,4-c][2,1]benzothiazine-8-carboxamide 5,5-dioxide], which Ki is on record?
Its Ki is 10 nM.

How did the Ki turn out when C=CCN1c2ccccc2-c2nc(Nc3ccc(C4CCCCC4)cc3)ncc2S1(=O)=O [Example 13, 6-allyl-N-(4-cyclohexylphenyl)-6H-pyrimido[5,4-c][2,1]benzothiazin-2-amine 5,5-dioxide] was run?
The Ki was 2080 nM.

CCCN1c2ccc(-c3ccccc3)cc2-c2nc(Nc3ccc(N4CCN(C)CC4)cc3)ncc2S1(=O)=O [Example 97, N-[4-(4-methylpiperazin-1-yl)phenyl]-9-phenyl-6-propyl-6H-pyrimido[5,4-c][2,1]benzothiazin-2-amine 5,5-dioxide] was tested. Which Ki did it give?
Its Ki is 6 nM.

For CCCN1c2cc(C(=O)N(C)C)ccc2-c2nc(Nc3ccc(N4CCN(C)CC4)cc3)ncc2S1(=O)=O [Example 83, N,N-dimethyl-2-{[4-(4-methylpiperazin-1-yl)phenyl]amino}-6-propyl-6H-pyrimido[5,4-c][2,1]benzothiazine-8-carboxamide 5,5-dioxide], which Ki is on record?
The Ki was 23 nM.

With CN1CCN(c2ccc(Nc3ncc4c(n3)-c3sccc3N(C)S4(=O)=O)cc2)CC1 [Example 55, 6-methyl-N-[4-(4-methylpiperazin-1-yl)phenyl]-6H-pyrimido[4,5-e]thieno[3,2-c][1,2]thiazin-2-amine 5,5-dioxide] as the molecule, how does the Ki read?
Its Ki is 8 nM.

C=CCN1c2ccccc2-c2nc(Nc3ccc4c(c3)CCCC4)ncc2S1(=O)=O [Example 17, 6-allyl-N-(5,6,7,8-tetrahydronaphthalen-2-yl)-6H-pyrimido[5,4-c][2,1]benzothiazin-2-amine 5,5-dioxide] was tested. Which Ki did it give?
The Ki was 2040 nM.

Which Ki does the source give for C=CCN1c2ncccc2-c2nc(Nc3ccc(N4CCN(C)CC4)cc3)ncc2S1(=O)=O [Example 40, 6-allyl-N-[4-(4-methylpiperazin-1-yl)phenyl]-6H-pyrido[2,3-c]pyrimido[4,5-e][1,2]thiazin-2-amine 5,5-dioxide] here?
Its Ki is 5 nM.

CCCN1c2cc(C(=O)OC)ccc2-c2nc(Nc3ccc(N4CCN(C)CC4)cc3)ncc2S1(=O)=O [Example 78, methyl 2-{[4-(4-methylpiperazin-1-yl)phenyl]amino}-6-propyl-6H-pyrimido[5,4-c][2,1]benzothiazine-8-carboxylate 5,5-dioxide] was tested. Which Ki did it give?
Its Ki is 6 nM.

How did the Ki turn out when C=CCN1c2ncccc2-c2nc(Nc3ccc(N4CCOCC4)cc3)ncc2S1(=O)=O [Example 52, 6-allyl-N-[4-(morpholin-4-yl)phenyl]-6H-pyrido[2,3-c]pyrimido[4,5-e][1,2]thiazin-2-amine 5,5-dioxide] was run?
The Ki was 12 nM.

How did the Ki turn out when CCCN1c2cc(-c3ccc(C(=O)NC4CC4)cc3)ccc2-c2nc(Nc3ccc(N4CCN(C)CC4)cc3)ncc2S1(=O)=O [Example 72, N-cyclopropyl-4-(2-{[4-(4-methylpiperazin-1-yl)phenyl]amino}-5,5-dioxido-6-propyl-6H-pyrimido[5,4-c][2,1]benzothiazin-8-yl)benzamide] was run?
Its Ki is 7 nM.

CCCN1c2ccc(-c3ccccc3CN(C)C)cc2-c2nc(Nc3ccc(N4CCN(C)CC4)cc3)ncc2S1(=O)=O [Example 101, 9-{2-[(dimethylamino)methyl]phenyl}-N-[4-(4-methylpiperazin-1-yl)phenyl]-6-propyl-6H-pyrimido[5,4-c][2,1]benzothiazin-2-amine 5,5-dioxide] was tested. Which Ki did it give?
Its Ki is 7.6 nM.

For CCCN1c2cc(C(=O)N[C@H]3CC[C@H](N)CC3)ccc2-c2nc(Nc3ccc(N4CCN(C)CC4)cc3)ncc2S1(=O)=O [Example 86, N-(trans-4-aminocyclohexyl)-2-{[4-(4-methylpiperazin-1-yl)phenyl]amino}-6-propyl-6H-pyrimido[5,4-c][2,1]benzothiazine-8-carboxamide 5,5-dioxide], which Ki is on record?
Its Ki is 4 nM.

C=CCN1c2ccccc2-c2nc(Nc3ccc(N4CCOCC4)cc3)ncc2S1(=O)=O [Example 16, 6-allyl-N-[4-(morpholin-4-yl)phenyl]-6H-pyrimido[5,4-c][2,1]benzothiazin-2-amine 5,5-dioxide] was tested. Which Ki did it give?
Its Ki is 7 nM.

How did the Ki turn out when CCCN1c2cc(-c3ccncc3)ccc2-c2nc(Nc3ccc(N4CCN(C)CC4)cc3)ncc2S1(=O)=O [Example 76, N-[4-(4-methylpiperazin-1-yl)phenyl]-6-propyl-8-(pyridin-4-yl)-6H-pyrimido[5,4-c][2,1]benzothiazin-2-amine 5,5-dioxide] was run?
Its Ki is 5 nM.

How did the Ki turn out when CCCN1c2cc(C(N)=O)ccc2-c2nc(Nc3ccc(N4CCN(C)CC4)cc3)ncc2S1(=O)=O [Example 79, 2-{[4-(4-methylpiperazin-1-yl)phenyl]amino}-6-propyl-6H-pyrimido[5,4-c][2,1]benzothiazine-8-carboxamide 5,5-dioxide] was run?
The Ki was 6 nM.

COC(=O)c1ccc2c(c1)N(Cc1c(Cl)cccc1Cl)S(=O)(=O)c1cnc(Nc3ccc(N4CCN(C)CC4)cc3)nc1-2 [Example 95, methyl 6-(2,6-dichlorobenzyl)-2-{[4-(4-methylpiperazin-1-yl)phenyl]amino}-6H-pyrimido[5,4-c][2,1]benzothiazine-8-carboxylate 5,5-dioxide] was tested. Which Ki did it give?
The Ki was 591 nM.

Which Ki does the source give for C=CCN1c2ncccc2-c2nc(Nc3ccc(N4CCNCC4)cc3)ncc2S1(=O)=O [Example 34, 6-allyl-N-[4-(piperazin-1-yl)phenyl]-6H-pyrido[2,3-c]pyrimido[4,5-e][1,2]thiazin-2-amine 5,5-dioxide] here?
The Ki was 2 nM.

How did the Ki turn out when CCCN1c2cc(-n3ccnc3)ccc2-c2nc(Nc3ccc(N4CCN(C)CC4)cc3)ncc2S1(=O)=O [Example 92, 8-(1H-imidazol-1-yl)-N-[4-(4-methylpiperazin-1-yl)phenyl]-6-propyl-6H-pyrimido[5,4-c][2,1]benzothiazin-2-amine 5,5-dioxide] was run?
The Ki was 14 nM.

With CCCN1c2ccccc2-c2nc(Nc3ccc(N4CCN(C)CC4)cc3)ncc2S1(=O)=O [Example 67, N-[4-(4-methylpiperazin-1-yl)phenyl]-6-propyl-6H-pyrimido[5,4-c][2,1]benzothiazin-2-amine 5,5-dioxide] as the molecule, how does the Ki read?
The Ki was 4 nM.

How did the Ki turn out when C=CCN1c2ncccc2-c2nc(Nc3ccc(C4CCNCC4)cc3)ncc2S1(=O)=O [Example 37, 6-allyl-N-[4-(piperidin-4-yl)phenyl]-6H-pyrido[2,3-c]pyrimido[4,5-e][1,2]thiazin-2-amine 5,5-dioxide] was run?
Its Ki is 5 nM.

How did the Ki turn out when CCCN1c2cc(C(=O)NC3CCCCC3)ccc2-c2nc(Nc3ccc(N4CCN(C)CC4)cc3)ncc2S1(=O)=O [Example 81, N-cyclohexyl-2-{[4-(4-methylpiperazin-1-yl)phenyl]amino}-6-propyl-6H-pyrimido[5,4-c][2,1]benzothiazine-8-carboxamide 5,5-dioxide] was run?
The Ki was 13 nM.

How did the Ki turn out when C=CCN1c2ccccc2-c2nc(Nc3ccc(N4CCC(C)CC4)cc3)ncc2S1(=O)=O [Example 9, 6-allyl-N-[4-(4-methylpiperidin-1-yl)phenyl]-6H-pyrimido[5,4-c][2,1]benzothiazin-2-amine 5,5-dioxide] was run?
Its Ki is 50 nM.

Reference: US8716297B2, “Chemical entities to be used for Wee1 inhibition for the treatment of cancer” (AbbVie Inc., priority 2011, dated 2014)
